Measured values from patent US11549123B2, “Plant EPSP synthases and methods of use” (PIONEER HI-BRED INTERNATIONAL, INC., priority 2015, dated 2023).
Where a chain is given by its changes, count along the chain named.

Legend:
Assay type in all cases: biochemical
[1] = molecular target: T1, Zea mays EPSPS variant Zm-H6 (868-H6) (Zea mays, UniProt O24566, A1R/A3W/A415G/A71Q/D401G/E301S/E390G/G101A/I207L/K83R/L97C/T278A/T360S/T440Q/V437R); assay: Rapid two-rate method for (kcat/KM)*KI, Zm-H6; conditions: [E] 0.07 uM, [Gly] 1000 uM
T1 sequence (O24566 with tags, fused parts or gaps A1R/A3W/A71Q/K83R/L97C/G101A/I207L/T278A/E301S/T360S/E390G/D401G/A415G/V437R/T440Q): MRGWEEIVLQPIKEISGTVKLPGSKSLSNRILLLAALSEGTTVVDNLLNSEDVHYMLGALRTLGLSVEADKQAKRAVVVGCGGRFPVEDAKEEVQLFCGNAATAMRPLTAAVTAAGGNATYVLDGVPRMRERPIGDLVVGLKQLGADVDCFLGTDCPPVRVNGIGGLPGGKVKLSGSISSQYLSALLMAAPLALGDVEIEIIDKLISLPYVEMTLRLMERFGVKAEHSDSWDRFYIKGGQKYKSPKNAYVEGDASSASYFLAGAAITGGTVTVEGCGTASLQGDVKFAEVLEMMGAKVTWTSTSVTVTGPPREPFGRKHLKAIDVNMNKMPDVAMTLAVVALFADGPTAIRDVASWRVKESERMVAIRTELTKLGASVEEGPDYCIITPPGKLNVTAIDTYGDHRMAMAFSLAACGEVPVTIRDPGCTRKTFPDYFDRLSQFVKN
From the text: (§1) In the Michaelis-Menten equation for steady state reaction velocity with competitive inhibition, the term (kcat/KM)*KI cannot be isolated due to the KM and [S] terms in the denominator. However, if two rate measurements are made at different inhibitor concentrations, those terms can be eliminated by subtraction and (kcat/KM)*KI isolated, as follows:
(§2) [formula] where v0 and v1 are initial velocities without and with inhibitor but at the same substrate and enzyme concentrations. Although Equations 2 and 3 are equally valid, to generate the data in Table 1, rate measurement was performed with and without inhibitor using Equation 3. Source of Reagents, Enzyme and Variants
(§3) EPSPS activity was determined by quantifying the phosphate generated by the reaction. Release of phosphate was coupled to reaction with MESG, catalyzed by purine-nucleoside phosphorylase, using standard methods. The absorbance change that occurs was monitored continuously at 360 nm, where the extinction is 11,200 M-1 cm-1, with a Spectramax plate reader (Molecular Devices). […] The enzyme concentration was adjusted so as to generate sufficient signal without exceeding the limit for linear initial reaction rates. […]
(§4) There are several practical considerations for accurately estimating (kcat/KM)*KI with the rapid method. […] Conditions can be set so that variants with a pre-determined minimal fitness level are accurately quantified. […]

[2] = molecular target: T2, Zea mays EPSPS variant Zm-T103I (Zea mays, UniProt O24566, T102I); assay: Rapid two-rate method for (kcat/KM)*KI, Zm-T103I
T2 construct: native maize plus T103I; E. coli BL21(DE3), Ni-NTA purified
T2 sequence (O24566 with tags, fused parts or gaps T102I): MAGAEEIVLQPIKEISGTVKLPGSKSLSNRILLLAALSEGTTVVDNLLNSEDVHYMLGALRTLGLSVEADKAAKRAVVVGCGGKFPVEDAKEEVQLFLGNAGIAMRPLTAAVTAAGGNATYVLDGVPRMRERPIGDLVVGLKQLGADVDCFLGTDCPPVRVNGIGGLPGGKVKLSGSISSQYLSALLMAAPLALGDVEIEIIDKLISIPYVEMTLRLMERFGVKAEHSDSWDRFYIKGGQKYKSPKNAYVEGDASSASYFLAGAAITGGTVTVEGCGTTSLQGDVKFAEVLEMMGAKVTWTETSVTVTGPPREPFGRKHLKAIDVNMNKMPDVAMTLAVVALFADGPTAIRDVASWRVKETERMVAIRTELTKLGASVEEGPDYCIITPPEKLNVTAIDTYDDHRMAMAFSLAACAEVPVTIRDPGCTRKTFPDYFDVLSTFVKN
From the text: There are several practical considerations for accurately estimating (kcat/KM)*KI with the rapid method. […] 2) The inhibitor concentration must be adjusted so as to obtain a degree of inhibition that minimally amplifies the error in the term v0-vi in Equation 3. If inhibition is too little, v0-vi will be small, and the error in the multiplier vi×v0/(v0-vi) will be large. […] 3) Substrate concentration should be set at the approximate KM of the parental variant(s), subject to the sensitivity of the assay. High substrate concentration obscures sensitivity to the inhibitor and reduces stringency for capturing improvements in KM. Depending on the necessity for speed, there exists opportunity for customizing enzyme and inhibitor concentrations. […] The rapid method was repeated for those and obtained data that correlated better with data obtained by substrate saturation analysis. For screening purposes however, that correlation step is not necessary. Conditions can be set so that variants with a pre-determined minimal fitness level are accurately quantified.
In Table 15, parameters above the heavy line for the rapid method were obtained under standard conditions. For variants shown below the heavy line, the rapid analysis was repeated with enzyme or glyphosate concentrations adjusted as needed to generate sufficient signal within the limits for linear initial rates.

[3] = molecular target: T3, Zea mays EPSPS, native, SEQ ID NO:2 (Zea mays, UniProt O24566); assay: Rapid two-rate method for (kcat/KM)*KI (30 uM PEP, with or without 1 mM glyphosate), native maize; conditions: Zm native, [E] 0.007 uM, [Gly] 0.5 uM
T3 construct: E. coli BL21(DE3), Ni-NTA purified
T3 sequence (O24566 with tags, fused parts or gaps): T2 sequence (O24566 with tags, fused parts or gaps T102I) with I103T
From the text: as §1, §2, §3, §4

O=C(O)CNCP(=O)(O)O [glyphosate, N-phosphonomethylglycine]
(kcat/KM)*KI [1]: 4013
(kcat/KM)*KI ([2]; rapid method repeated, [E] 0.103 uM, [Gly] 100 uM): 116
(kcat/KM)*KI ([2]; rapid method, [E] 0.07 uM, [Gly] 1000 uM): 133
(kcat/KM)*KI [3]: 11
